As usually defined, the IC50 is the midpoint of a concentration-inhibition curve.

SMILES strings stand for the structures.

Assay [1] has as its target T1, Human Indoleamine 2,3-dioxygenase (IDO) (Homo sapiens, UniProt P14902).
T1 construct: His tag (N); made in house; host or cells: E. coli
As to the kind of experiment: Human IDO enzymatic assay (kynurenine level). To be noted: 6 nM IDO, 10 μM L-Trp; geometric mean; read-out: IDO1 GMean: IC50 (μM) (Biochemical Assay). It counts as biochemical. The essentials:
(§1)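 Reactions were stopped with TCA, converting N-formylkynurenine to kynurenine for quantitation, with IC50 by nonlinear regression. IDO: 6 nM enzyme, 10 μM L-Trp, 20 min RT. TDO: 1 nM enzyme, 350 μM L-Trp, 70 min RT, both in pH 6.5 buffer.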

The target of assay [2] is T2, Human Tryptophan 2,3-dioxygenase (TDO) (Homo sapiens, UniProt P48775).
T2 construct: His tag (N); made in house; host or cells: E. coli
T2 sequence (P48775 whole entry): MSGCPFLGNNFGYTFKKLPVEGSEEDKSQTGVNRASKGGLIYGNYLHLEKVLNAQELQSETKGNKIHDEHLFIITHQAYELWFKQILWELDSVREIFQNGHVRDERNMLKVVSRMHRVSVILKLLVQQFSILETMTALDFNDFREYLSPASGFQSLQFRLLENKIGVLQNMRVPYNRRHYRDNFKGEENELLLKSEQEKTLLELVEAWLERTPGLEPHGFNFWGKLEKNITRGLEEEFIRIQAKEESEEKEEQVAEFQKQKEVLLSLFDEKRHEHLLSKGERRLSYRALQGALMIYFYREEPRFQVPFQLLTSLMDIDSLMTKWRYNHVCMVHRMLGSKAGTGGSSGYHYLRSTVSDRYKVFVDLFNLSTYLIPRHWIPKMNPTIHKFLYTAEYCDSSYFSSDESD
Briefly: Human TDO enzymatic assay (kynurenine level). It counts as biochemical. To be noted: 1 nM TDO, 350 μM L-Trp; geometric mean; read-out: TDO GMean: IC50 (μM) (Biochemical Assay). The essentials: as §1

The target in assay [3] is T3, human IDO (IDO1-expressing HEK293 cells) (Homo sapiens, UniProt P14902).
T3 construct: expressed in transfected cells
T3 sequence (P14902 whole entry): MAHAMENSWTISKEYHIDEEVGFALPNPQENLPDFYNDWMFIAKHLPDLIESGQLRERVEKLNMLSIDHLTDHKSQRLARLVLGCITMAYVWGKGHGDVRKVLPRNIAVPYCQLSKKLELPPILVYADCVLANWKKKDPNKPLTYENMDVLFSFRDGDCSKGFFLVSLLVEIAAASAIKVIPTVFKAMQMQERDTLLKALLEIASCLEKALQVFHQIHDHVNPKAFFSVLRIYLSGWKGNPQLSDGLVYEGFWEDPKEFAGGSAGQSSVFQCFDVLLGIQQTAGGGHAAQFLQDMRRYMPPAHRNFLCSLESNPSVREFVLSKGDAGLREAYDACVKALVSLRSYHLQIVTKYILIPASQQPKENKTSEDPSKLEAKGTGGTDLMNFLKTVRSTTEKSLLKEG
Briefly: Cell based kynurenine assay, IDO1-expressing HEK293 cell clones. To be noted: IDO1-expressing HEK293 cells, 24 hours incubation; geometric mean; read-out: HEK293 IDO1 Kynurenine GMean IC50 (μM) (Cellular Assay). Summed up: (§2)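 Kynurenine in culture supernatant read after 24 h compound exposure of HEK293 cells stably expressing human IDO1 or TDO. IC50 from nonlinear regression of % inhibition relative to 0.2% DMSO cell (high) and media-only (low) controls.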

Assay [4] has as its target T4, human TDO (TDO-expressing HEK293 cells) (Homo sapiens, UniProt P48775).
T4 construct: expressed in transfected cells
Briefly: Cell based kynurenine assay, TDO-expressing HEK293 cell clones. To be noted: TDO-expressing HEK293 cells, 24 hours incubation; geometric mean; read-out: HEK293 TDO Kynurenine GMean IC50 (μM) (Cellular Assay). The essentials:
as §2

T1 sequence (P14902 whole entry): as above
T4 sequence (P48775 whole entry): as the sequence (P48775 whole entry) above

Turning to `OC(c1cccc2cncn12)C1CCC1` (centres unmarked) [Compound P-0080, cyclobutyl(imidazo[1,5-a]pyridin-5-yl)methanol], the IC50 was 0.0001 to 10 µM in assay [1], 0.0001 to 10 µM in assay [2], over 10 µM in assay [3] and over 10 µM in assay [4].

Consider `OC(c1cccc2cncn12)C1CCC(F)(F)CC1` (centres unmarked) [Compound P-0081, (4,4-difluorocyclohexyl)(imidazo[1,5-a]pyridin-5-yl)methanol], for which the concentration for half-maximal inhibition (IC50) in assay [1] was 0.0001 to 10 µM; in assay [2], 0.0001 to 10 µM; in assay [3], over 10 µM; in assay [4], over 10 µM.

As to `CC1(C(O)c2cc(Br)cc3cncn23)CCCCC1` (centres unmarked) [Compound P-0082, (7-bromoimidazo[1,5-a]pyridin-5-yl)(1-methylcyclohexyl)methanol], the IC50 in assay [1], in assay [2], in assay [3] and in assay [4] was 0.0001 to 10 µM in each case.

Take `CC1(C(O)c2cc(Cl)cc3cncn23)CCCCC1` (centres unmarked) [Compound P-0083, (7-Chloroimidazo[1,5-a]pyridin-5-yl)(1-methylcyclohexyl)methanol]: the IC50 in assay [1], in assay [2], in assay [3] and in assay [4] was 0.0001 to 10 µM in each case.

Regarding `OC(CC1CCOCC1)c1cccc2cncn12` (stereo not drawn) [Compound P-0084, 1-(imidazo[1,5-a]pyridin-5-yl)-2-(tetrahydro-2H-pyran-4-yl)ethan-l-ol], the IC50 in assay [1] is 0.0001 to 10 µM; in assay [2] it was 0.0001 to 10 µM; in assay [3] it was over 10 µM; in assay [4], over 10 µM.

For `CC(C)(C)OC(=O)N1CCC(CC(O)c2cccc3cncn23)CC1` (stereo not drawn) [Compound P-0085, tert-butyl 4-(2-hydroxy-2-(imidazo[1,5-a]pyridin-5-yl)ethyl)piperidine-l-carboxylate], the half-inhibitory concentration (IC50) in assay [1] was 0.0001 to 10 µM; in assay [2] it was 0.0001 to 10 µM; in assay [3], over 10 µM; in assay [4] it was over 10 µM.

In the case of `CC(C)(C1CCCCC1)C(O)c1cc(Cl)cc2cncn12` (centres unmarked) [Compound P-0086, 1-(7-chloroimidazo[1,5-a]pyridin-5-yl)-2-cyclohexyl-2-methylpropan-1-ol], the IC50 in assay [1], in assay [2], in assay [3] and in assay [4] was 0.0001 to 10 µM each time.

As for `OC(c1cccc2cncn12)C12CC3CC(CC(C3)C1)C2` [Compound P-0087, ((1S,3s)-adamantan-1-yl)(imidazo[1,5-a]pyridin-5-yl)methanol], the IC50 in assay [1] was 0.0001 to 10 µM; in assay [2] it was 0.0001 to 10 µM; in assay [3] it was 0.0001 to 10 µM; in assay [4], over 10 µM.

In the case of `CC1(C(O)c2c(Cl)ccc3cncn23)CCCCC1` (centres unmarked) [Compound P-0088, (6-chloroimidazo[1,5-a]pyridin-5-yl)(1-methylcyclohexyl)methanol], the IC50 is 0.0001 to 10 µM in assay [1], 0.0001 to 10 µM in assay [2], 0.0001 to 10 µM in assay [3] and over 10 µM in assay [4].

`CC1(C)CN(c2cc(Cl)cc3cn[nH]c23)CCN1S(C)(=O)=O` [Compound P-0089, 5-chloro-7-(3,3-dimethyl-4-(methylsulfonyl)piperazin-1-yl)-1H-indazole]: the IC50 in assay [1], in assay [2], in assay [3] and in assay [4] was 0.0001 to 10 µM each time.

In the case of `Cc1cc(N2CCN(S(C)(=O)=O)C(C)(C)C2)c2[nH]ncc2c1` [Compound P-0090, 7-(3,3-dimethyl-4-(methylsulfonyl)piperazin-1-yl)-5-methyl-1H-indazole], the 50% inhibitory concentration (IC50) in assay [1], in assay [2], in assay [3] and in assay [4] was 0.0001 to 10 µM each time.

On to `CC1(C)CN(c2cc(C(F)(F)F)cc3cn[nH]c23)CCN1S(C)(=O)=O` [Compound P-0091], for which the 50% inhibitory concentration (IC50) in assay [1], in assay [2], in assay [3] and in assay [4] was 0.0001 to 10 µM in each case.

In the case of `CC1(C)CN(c2c(F)c(Cl)cc3cn[nH]c23)CCN1S(C)(=O)=O` [Compound P-0092, 5-chloro-7-(3,3-dimethyl-4-(methylsulfonyl)piperazin-1-yl)-6-fluoro-1H-indazole], the IC50 in assay [1], in assay [2], in assay [3] and in assay [4] was 0.0001 to 10 µM each time.

With `CS(=O)(=O)N1C2CCC1CN(c1cc(Cl)cc3cn[nH]c13)C2` [Compound P-0093, 5-chloro-7-(8-(methylsulfonyl)-3,8-diazabicyclo[3.2.1]octan-3-yl)-1H-indazole], the IC50 in assay [1], in assay [2], in assay [3] and in assay [4] was 0.0001 to 10 µM each time.

On to `Cc1cc(N2CC3CCC(C2)N3S(C)(=O)=O)c2[nH]ncc2c1` [Compound P-0094, 5-methyl-7-(8-(methylsulfonyl)-3,8-diazabicyclo[3.2.1]octan-3-yl)-1H-indazole], for which the IC50 in assay [1] was 0.0001 to 10 µM; in assay [2], 0.0001 to 10 µM; in assay [3], over 10 µM; in assay [4], 0.0001 to 10 µM.

Regarding `CS(=O)(=O)N1C2CCC1CN(c1cc(C(F)(F)F)cc3cn[nH]c13)C2` [Compound P-0095, 7-(8-(methylsulfonyl)-3,8-diazabicyclo[3.2.1]octan-3-yl)-5-(trifluoromethyl)-1H-indazole], the IC50 in assay [1], in assay [2], in assay [3] and in assay [4] was 0.0001 to 10 µM in each case.

Consider `CS(=O)(=O)N1C2CCC1CN(c1c(F)c(Cl)cc3cn[nH]c13)C2` [Compound P-0096, 5-chloro-6-fluoro-7-(8-(methylsulfonyl)-3,8-diazabicyclo[3.2.1]octan-3-yl)-1H-indazole], for which the IC50 was 0.0001 to 10 µM in assay [1], 0.0001 to 10 µM in assay [2], over 10 µM in assay [3] and 0.0001 to 10 µM in assay [4].

Regarding `CC1(C)CN(c2cc(Cl)c(F)c3cn[nH]c23)CCN1S(C)(=O)=O` [Compound P-0097, 5-chloro-7-(3,3-dimethyl-4-(methylsulfonyl)piperazin-1-yl)-4-fluoro-1H-indazole], the IC50 in assay [1], in assay [2], in assay [3] and in assay [4] was 0.0001 to 10 µM each time.

With `CC1(C(O)c2c(Cl)ccn3cncc23)CCCCC1` (centres unmarked) [Compound P-0098, (7-chloroimidazo[1,5-a]pyridin-8-yl)(1-methylcyclohexyl)methanol], the IC50 in assay [1] was 0.0001 to 10 µM; in assay [2], 0.0001 to 10 µM; in assay [3], 0.0001 to 10 µM; in assay [4], over 10 µM.

Take `CC1(C(O)c2c3c(cc4cn[nH]c24)CCC3)CCCCC1` (centres unmarked) [Compound P-0099, (1-methylcyclohexyl)(1,5,6,7-tetrahydrocyclopenta[f]indazol-8-yl)methanol]: the half-maximal inhibitory concentration (IC50) in assay [1], in assay [2], in assay [3] and in assay [4] was 0.0001 to 10 µM in each case.

With `OC1(c2cc(Cl)cc3cn[nH]c23)CC2(C1)[C@H]1C[C@@H]3C[C@@H](C[C@H]2C3)C1` (stereo partly drawn) [Compound P-0100, (1R,5S)-3′-(5-chloro-1H-indazol-7-yl)spiro[adamantane-2,1′-cyclobutan]-3′-ol], the concentration for half-maximal inhibition (IC50) in assay [1], in assay [2], in assay [3] and in assay [4] was 0.0001 to 10 µM in each case.

With `N#CC1CC=C(c2cc(Cl)cc3cn[nH]c23)CC1` (stereo not drawn) [Compound P-0105, 4-(5-chloro-1H-indazol-7-yl)cyclohex-3-ene-l-carbonitrile], the concentration for half-maximal inhibition (IC50) in assay [1], in assay [2], in assay [3] and in assay [4] was 0.0001 to 10 µM in each case.

Regarding `O=C1NCCC12CCN(c1cc(Cl)cc3cn[nH]c13)CC2` [Compound P-0111, 8-(5-chloro-1H-indazol-7-yl)-2,8-diazaspiro[4.5]decan-l-one], the half-maximal inhibitory concentration (IC50) in assay [1], in assay [2], in assay [3] and in assay [4] was 0.0001 to 10 µM throughout.

Regarding `CC1(C(O)c2c(F)c(Cl)c(F)c3cn[nH]c23)CC(F)(F)C1` (centres unmarked) [Compound P-0112, (5-chloro-4,6-difluoro-1H-indazol-7-yl)(3,3-difluoro-1-methylcyclobutyl)methanol], the IC50 in assay [1], in assay [2], in assay [3] and in assay [4] was 0.0001 to 10 µM each time.

As for `OC1(c2cc(Cl)cc3cn[nH]c23)CC2(C1)C1CC3CC(C1)CC2C3` (centres unmarked) [Compound P-0113, (1r,3r,5r,7r)-3′-(5-chloro-1H-indazol-7-yl)spiro[adamantane-2,1′-cyclobutan]-3′-ol], the IC50 in assay [1], in assay [2], in assay [3] and in assay [4] was 0.0001 to 10 µM each time.

Turning to `CC1(C(O)c2c(F)c(Cl)cc3cn[nH]c23)CC(F)(F)C1` (centres unmarked) [Compound P-0114, (5-chloro-6-fluoro-1H-indazol-7-yl)(3,3-difluoro-1-methylcyclobutyl)methanol], the IC50 in assay [1], in assay [2], in assay [3] and in assay [4] was 0.0001 to 10 µM throughout.

(Values after US10508085B2, “Compounds and methods for IDO and TDO modulation, and indications therefor” (Plexxikon Inc., priority 2016, dated 2019).)
